Test system: Diamond Back Moth (Plutella xylostella)
Test: Insecticidal effect on diamond back moth (Test Example 1)
Format: in vivo
Conditions: 144 h, Chinese cabbage seedling with eggs immersed about 30 seconds, 25° C., hatched insects counted six days after immersion, read-out: insecticidal effect (mortality) activity ranking
Text: Insecticidal Effect on Diamond Back Moth (Plutella xylostella)
Adult diamond back moths were released and allowed to oviposit on a Chinese cabbage seedling. Two days after the release, the seedling having the eggs deposited thereon was immersed for about 30 seconds in a liquid chemical prepared by diluting a preparation containing each compound listed in Tables 1 to 4 as an active ingredient to adjust the concentration to 500 ppm. After air-dryness, it was allowed to stand in a room thermostatted at 25° C. Six days after the immersion, the hatched insects were counted. The mortality was calculated according to the following equation and the insecticidal effect was judged according to the criterion shown below. The test was carried out with triplicate groups of 10 insects. [formula]

## Cc1cc(OC(F)(F)F)ccc1NC(=O)c1cccc(Cl)c1-c1coc(C(C)(C)C)n1 [4-1, 2-(2-t-butyloxazol-4-yl)-3-chloro-2′-methyl-4′-trifluoromethoxybenzanilide]
  mortality at 500 ppm: 100%

Source: patent US6642379B1, “Benzamide derivatives, insecticides for agricultural and horticultural use and usage thereof” (Nihon Nohyaku Co., Ltd., priority 1999, dated 2003)
